Experimental data from ChEMBL document CHEMBL5537139, “Promises of anionic calix[n]arenes in life science: State of the art in 2023” (Eur J Med Chem, 2024).

Assays:
[1] = Binding affinity to trimethyl-lysine (unknown origin) assessed as dissociation constant; parameters: species or system Homo sapiens
[2] = Binding affinity to Methyl-lysine (unknown origin) assessed as dissociation constant; parameters: species or system Homo sapiens
[3] = Inhibition of influenza A virus A/H3N2 neuraminidase
Caco-2 = experiment: Anticancer activity against human Caco-2 cells assessed as inhibition of cell viability; type: functional, cell-based
HT-29 = experiment: Anticancer activity against human HT-29 cells assessed as reduction in cell viability incubated for 24 hrs by MTT assay; type: functional, cell-based; conditions: HT-29, 24 h
bovine serum albumin = bovine serum albumin (Bos taurus, UniProt P02769); experiment: Inhibition of bovine serum albumin at 1 uM by SPR analysis relative to control; conditions: cattle
bovine serum albumin, sequence (P02769 whole entry): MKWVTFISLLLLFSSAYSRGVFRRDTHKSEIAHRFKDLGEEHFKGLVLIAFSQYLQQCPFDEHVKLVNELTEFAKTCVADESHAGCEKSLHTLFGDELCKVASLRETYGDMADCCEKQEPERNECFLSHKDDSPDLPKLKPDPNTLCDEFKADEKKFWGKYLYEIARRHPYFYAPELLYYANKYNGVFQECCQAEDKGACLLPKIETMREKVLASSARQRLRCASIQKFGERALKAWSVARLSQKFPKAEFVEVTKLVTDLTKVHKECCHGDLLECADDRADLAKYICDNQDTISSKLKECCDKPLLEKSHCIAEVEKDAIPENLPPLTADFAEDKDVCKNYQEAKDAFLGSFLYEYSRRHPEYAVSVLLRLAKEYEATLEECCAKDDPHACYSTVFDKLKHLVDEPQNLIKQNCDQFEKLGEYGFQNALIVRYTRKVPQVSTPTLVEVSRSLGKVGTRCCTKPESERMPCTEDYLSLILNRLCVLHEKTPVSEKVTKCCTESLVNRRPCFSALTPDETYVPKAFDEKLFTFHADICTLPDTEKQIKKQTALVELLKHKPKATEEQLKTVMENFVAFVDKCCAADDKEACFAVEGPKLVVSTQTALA

O=S(=O)(O)c1cc2c(O)c(c1)Cc1cc(S(=O)(=O)O)cc(c1O)Cc1cc(S(=O)(=O)O)cc(c1O)Cc1cc(S(=O)(=O)O)cc(c1O)C2 gave a Kd [1] of 27 µM and a Kd [2] of 15.6 µM.

Compound O=S(=O)(O)c1cc2c(O)c(c1)Cc1cc(S(=O)(=O)O)cc(c1O)Cc1cc(S(=O)(=O)O)cc(c1O)Cc1cc(S(=O)(=O)O)cc(c1O)Cc1cc(S(=O)(=O)O)cc(c1O)Cc1cc(S(=O)(=O)O)cc(c1O)Cc1cc(S(=O)(=O)O)cc(c1O)Cc1cc(S(=O)(=O)O)cc(c1O)C2 has an IC50 [3] of 6.4 µM.

With CCCCCCOc1c2cc(P(=O)(O)O)cc1Cc1cc(P(=O)(O)O)cc(c1OCCCCCC)Cc1cc(P(=O)(O)O)cc(c1OCCCCCC)Cc1cc(P(=O)(O)O)cc(c1OCCCCCC)C2 the IC50 (Caco-2) was 3.88 µM and the IC50 (HT-29) was 8.79 µM.

CC[C@@]1(O)C(=O)OCc2c1cc1n(c2=O)Cc2cc3ccccc3nc2-1 [CAMPTOTHECIN] gave an inhibition at 1 µM (bovine serum albumin) of 98%.

COc1cccc2c1C(=O)c1c(O)c3c(c(O)c1C2=O)C[C@@](O)(C(=O)CO)C[C@@H]3O[C@H]1C[C@H](N)[C@H](O)[C@H](C)O1 [DOXORUBICIN] showed an inhibition at 1 µM (bovine serum albumin) of 87%.

CO[C@@]12[C@H](COC(N)=O)C3=C(C(=O)C(C)=C(N)C3=O)N1C[C@@H]1N[C@@H]12 [MITOMYCIN] gave an inhibition at 1 µM (bovine serum albumin) of 94%.
